Measured values taken from US9920039B2, “1,2,4-Oxadiazol compounds active against gram-positive pathogens” (UNIVERSITÀ DEGLI STUDI DI MILANO—BICOCCA, priority 2013, dated 2018).
Values after ≈ are worked out from the molar mass of the structure shown. Read-outs that look alike come from different tables or passages of the source.

How the values were obtained:
[1] = test system: Staphylococcus aureus ATCC 29213; experiment: MIC by broth microdilution (CLSI); type: cell-based; conditions: ATCC 29213
Description: (§1) Several well characterized for their antibiotic-susceptibility phenotype Staphylococcus aureus isolates were used for the determination of the in vitro antibacterial activity of the studied compounds. In particular, S. aureus ATCC 29213 reference standard strain and S. aureus M923 (collection strain) were used as MSSA strains. Among MRSA, S. aureus MU50 (ATCC 700699) reference standard strain and two collection strains (433 and F511) were used for susceptibility assays.
(§2) The in vitro antibacterial activity of the new agents was studied by determining their minimum inhibitory concentrations (MICs) by means of the broth microdilution method according to the Clinical and Laboratory Standards Institute (CLSI) guidelines.[16] Briefly, serial 2-fold dilutions of each compound were made using the Cation adjusted Mueller-Hinton broth (CAMHB) in microtitre plates with 96 wells. Dimethyl sulfoxide (DMSO) was used as solvent for all the synthesized compounds. An equal volume of the bacterial inoculum (1×10^6 CFU/mL) was added to each well on the microtitre plate containing 0.05 mL of the serial antibiotic dilutions. The microtitre plate was then incubated at 37° C. for 18-24 h after which each well was analysed for the presence of bacterial growth. The MIC was defined as the lowest concentration of antimicrobial agent able to cause inhibition of bacterial growth as shown by the lack of turbidity of the culture medium. […] Final DMSO concentrations were also taken into account in all the biological assays.
(§3) The antimicrobial activities, summarized in Table 2, were determined by the “gold standard” method of broth microdilution, as recommended by the Clinical Laboratory Standards Institute (CLSI) (See the Experimental Section). […] In detail, the bacterial strains were tested: Staphylococcus aureus ATCC 29213, a clinical strain of methicillin-susceptible S. aureus (M923), S. aureus MU50 (methicillin-resistant—MRSA), and two methicillin-resistant clinical strains, 433 and F511.
(§4) The antimicrobial activities, summarized in Table 3, were determined by the “gold standard” method of broth microdilution, as recommended by the Clinical Laboratory Standards Institute (CLSI) (See the Experimental Section). The minimum inhibitory concentration (MIC) values were expressed in μg/mL. […] In detail, the tested bacterial strains were: Staphylococcus aureus ATCC 29213, a clinical strain of methicillin-susceptible S. aureus (M923), S. aureus MU50 (methicillin-resistant—MRSA) strain, and two methicillin-resistant clinical strains, 433 and F511.

MRSA clinical strain 433 = experiment: MIC by broth microdilution (CLSI); type: cell-based, Staphylococcus aureus; conditions: MRSA 433
Description: as §1, §2, §3, §4

[2] = test system: MRSA clinical strain F511; experiment: MIC by broth microdilution (CLSI); type: cell-based, Staphylococcus aureus
Description: as §1, §2, §3, §4

[3] = test system: S. aureus MU50 (ATCC 700699), methicillin-resistant (MRSA); experiment: MIC by broth microdilution (CLSI); type: cell-based, Staphylococcus aureus
Description: as §1, §2, §3, §4

[4] = test system: methicillin-susceptible S. aureus (M923); experiment: MIC by broth microdilution (CLSI); type: cell-based, Staphylococcus aureus; conditions: MSSA M923
Description: as §1, §2, §3, §4

[5] = test system: 6 ATCC (4MSSA, 2 MRSA)plus45 MRSA all LZD sensitive; experiment: MIC on strain panel (Table 4); type: cell-based, Staphylococcus aureus; conditions: 6 ATCC plus 45 MRSA; for MIC-range: tested range ≤0.06 - >128
Description: as §2

[6] = test system: 12 MRSE all LZD sensitive; experiment: MIC on strain panel (Table 4); type: cell-based, Staphylococcus epidermidis
Description: as §2

[7] = Staphylococcus aureus, ATCC29213, racemic mixture, Table 2, read-out: MIC
[8] = Staphylococcus aureus, racemic mixture, Table 2, read-out: MIC
[9] = Staphylococcus aureus, ATCC29213, racemic form, Table 3, read-out: MIC
[10] = Staphylococcus aureus, racemic form, Table 3, read-out: MIC

Row | SMILES | MIC [1, 7] [µg/mL] | MIC (MRSA clinical strain 433; [8]) [µg/mL] | MIC [2, 8] [µg/mL] | MIC [3, 8] [µg/mL] | MIC [4, 8] [µg/mL] | melting point [°C] | also measured
1 | Cc1noc(-c2ccc(N3CC(CI)OC3=O)cc2)n1 (racemic) [Compound A1a, 3-(4′-(3″-methyl-1,2,4-oxadiazol-5″-yl)-phenyl)-5-(iodomethyl)-oxazolidin-2-one] | > 50 | 25 (≈ 64.9 µM) | 50 (≈ 130 µM) | 50 (≈ 130 µM) | > 50 | 145 to 147 | 
2 | Cc1noc(-c2ccc(N3CC(CNC(N)=S)OC3=O)cc2F)n1 (racemic) [Compound B3b] |  |  |  |  |  |  | MIC ([1]; racemic form, Table 3): >50 µg/mL; MIC (MRSA clinical strain 433; racemic form, Table 3): >50 µg/mL; MIC ([2]; racemic form, Table 3): >50 µg/mL; MIC ([3]; racemic form, Table 3): >50 µg/mL; MIC ([4]; racemic form, Table 3): >50 µg/mL
3 | CNC(=S)NC[C@H]1CN(c2ccc(-c3nc(C)no3)c(F)c2)C(=O)O1 [Compound B4bS] |  |  |  |  |  |  | MIC50 [5]: 2 µg/mL; MIC90 [5]: 4 µg/mL; MIC-range [5]: 0.5 to 8 µg/mL; MIC50 [6]: 8 µg/mL (≈ 21.9 µM); MIC90 [6]: 8 µg/mL (≈ 21.9 µM)
4 | CC(=S)NCC1CN(c2ccc(-c3nc(C)no3)cc2)C(=O)O1 (racemic) [Compound A4a, 3-(4′-(3″-methyl-1,2,4-oxadiazol-5-yl)-phenyl)-5-(N-thioacetylaminomethyl)-oxazolidin-2-one] | 3.13 (≈ 9.42 µM) | 1.6 (≈ 4.81 µM) | 1.6 (≈ 4.81 µM) | ≤ 0.4 | 1.6 (≈ 4.81 µM) |  | 
5 | Cc1noc(-c2ccc(N3CC(CN=[N+]=[N-])OC3=O)cc2F)n1 (racemic) [Compound A2b, 3-(3′-fluoro-4′-(3″-methyl-1,2,4-oxadiazol-5-yl)-phenyl)-5-(azidometil)-oxazolidin-2-one] | > 50 | > 50 | > 50 | > 50 | > 50 | 126.2 to 127.7 | 
6 | Cc1noc(-c2ccc(N3CC(CN=C=S)OC3=O)cc2)n1 (racemic) [Compound B2a] |  |  |  |  |  |  | MIC [1, 9]: > 50 µg/mL; MIC (MRSA clinical strain 433; [10]): > 50 µg/mL; MIC [2, 10]: 50 µg/mL (≈ 158 µM); MIC [3, 10]: > 50 µg/mL; MIC [4, 10]: > 50 µg/mL
7 | Cc1noc(-c2ccc(N3CC(CI)OC3=O)cc2F)n1 (racemic) [Compound A1b, 3-(3′-fluoro-4′-(3″-methyl-1,2,4-oxadiazol-5″-yl)-phenyl)-5-(iodomethyl)-oxazolidin-2-one] | > 50 | 50 (≈ 124 µM) | > 50 | 50 (≈ 124 µM) | > 50 | 148 to 149 | 
8 | Cc1noc(-c2ccc(N3CC(Cn4cccn4)OC3=O)cc2F)n1 (racemic) [Compound A5b] | > 50 | > 50 | > 50 | > 50 | > 50 |  | 
9 | CNC(=S)NC[C@@H]1CN(c2ccc(-c3nc(C)no3)cc2)C(=O)O1 [Compound B4aR] |  |  |  |  |  |  | MIC50 [5]: >128 µg/mL; MIC90 [5]: >128 µg/mL; MIC50 [6]: >128 µg/mL; MIC90 [6]: >128 µg/mL; MIC range [6]: >128 µg/mL
10 | Cc1noc(-c2ccc(N3CC(CNC(N)=S)OC3=O)cc2)n1 (racemic) [Compound B3a] |  |  |  |  |  |  | MIC ([1]; racemic form, Table 3): >50 µg/mL; MIC (MRSA clinical strain 433; racemic form, Table 3): >50 µg/mL; MIC ([2]; racemic form, Table 3): >50 µg/mL; MIC ([3]; racemic form, Table 3): >50 µg/mL; MIC ([4]; racemic form, Table 3): >50 µg/mL
11 | Cc1noc(-c2ccc(N3CC(Cn4ccnc4)OC3=O)cc2)n1 (racemic) [Compound A6a] | > 50 | > 50 | > 50 | > 50 | > 50 |  | 
12 | Cc1noc(-c2ccc(N3CC(CN=C=S)OC3=O)cc2F)n1 (racemic) [Compound B2b] |  |  |  |  |  |  | MIC [1, 9]: > 50 µg/mL; MIC (MRSA clinical strain 433; [10]): > 50 µg/mL; MIC [2, 10]: > 50 µg/mL; MIC [3, 10]: > 50 µg/mL; MIC [4, 10]: > 50 µg/mL
13 | CNC(=S)NCC1CN(c2ccc(-c3nc(C)no3)c(F)c2)C(=O)O1 (racemic) [Compound B4b, 1-((3-(3-fluoro-4-(3-methyl-1,2,4-oxadiazol-5-yl)phenyl)-oxazolidin-2-one-5-yl)methyl)-3-methylthiourea] |  |  |  |  |  | 170.7 to 172.4 | MIC [1, 9]: 6.25 µg/mL (≈ 17.1 µM); MIC (MRSA clinical strain 433; [10]): 3.12 µg/mL (≈ 8.55 µM); MIC [2, 10]: 6.25 µg/mL (≈ 17.1 µM); MIC [3, 10]: 1.6 µg/mL (≈ 4.38 µM); MIC [4, 10]: 6.25 µg/mL (≈ 17.1 µM); MIC-range [5]: 0.5 to 16 µg/mL; MIC50 ([5]; Staphylococcus aureus, read-out: MIC50): 4 µg/mL; MIC90 ([5]; Staphylococcus aureus, read-out: MIC90): 16 µg/mL; MIC50 ([6]; Staphylococcus epidermidis, read-out: MIC50): 64 µg/mL (≈ 175 µM); MIC90 ([6]; Staphylococcus epidermidis, read-out: MIC90): 128 µg/mL (≈ 350 µM)
14 | Cc1noc(-c2ccc(N3CC(Cn4cncn4)OC3=O)cc2F)n1 (racemic) [Compound A7b] | > 50 | > 50 | > 50 | > 50 | > 50 |  | 
15 | Cc1noc(-c2ccc(N3CC(CN=[N+]=[N-])OC3=O)cc2)n1 (racemic) [Compound A2a, 3-(4′-(3″-methyl-1,2,4-oxadiazol-5-yl)-phenyl)-5-(azidometil)-oxazolidin-2-one] | > 50 | > 50 | > 50 | > 50 | > 50 | 133.9 to 135 | 
16 | CC(=O)NCC1CN(c2ccc(-c3nc(C)no3)c(F)c2)C(=O)O1 (racemic) [Compound A3b, 3-(3′-fluoro-4′-(3″-methyl-1,2,4-oxadiazol-5-yl)-phenyl)-5-(N-acetylaminomethyl)-oxazolidin-2-one] | 12.5 (≈ 37.4 µM) | 1.6 (≈ 4.79 µM) | 12.5 (≈ 37.4 µM) | 6.25 (≈ 18.7 µM) | 6.25 (≈ 18.7 µM) | 184 to 186 | 
17 | Cc1noc(-c2ccc(N3CC(Cn4cncn4)OC3=O)cc2)n1 (racemic) [Compound A7a] | > 50 | > 50 | > 50 | > 50 | > 50 |  | 
18 | CNC(=S)NC[C@@H]1CN(c2ccc(-c3nc(C)no3)c(F)c2)C(=O)O1 [Compound B4bR] |  |  |  |  |  |  | MIC50 [5]: >128 µg/mL; MIC90 [5]: >128 µg/mL; MIC50 [6]: >128 µg/mL; MIC90 [6]: >128 µg/mL
19 | CNC(=S)NC[C@H]1CN(c2ccc(-c3nc(C)no3)cc2)C(=O)O1 [Compound B4aS] |  |  |  |  |  |  | MIC50 [5]: 2 µg/mL; MIC90 [5]: 4 µg/mL; MIC-range [5]: 0.5 to 8 µg/mL; MIC50 [6]: 16 µg/mL (≈ 46.1 µM); MIC90 [6]: 32 µg/mL (≈ 92.1 µM); MIC range [6]: 8 to 32 µg/mL
20 | Cc1noc(-c2ccc(N3CC(Cn4ccnc4)OC3=O)cc2F)n1 (racemic) [Compound A6b] | > 50 | > 50 | > 50 | > 50 | > 50 |  | 
21 | Cc1noc(-c2ccc(N3CC(Cn4cccn4)OC3=O)cc2)n1 (racemic) [Compound A5a] | > 50 | > 50 | > 50 | > 50 | > 50 |  | 
22 | CC(=O)NCC1CN(c2ccc(-c3nc(C)no3)cc2)C(=O)O1 (centres unmarked) [Compound A3a, 3-(4′-(3″-methyl-1,2,4-oxadiazol-5-yl)-phenyl)-5-(N-acetylaminomethyl)-oxazolidin-2-one] | 12.5 (≈ 39.5 µM) | 1.6 (≈ 5.06 µM) | 12.5 (≈ 39.5 µM) | 6.25 (≈ 19.8 µM) | 6.25 (≈ 19.8 µM) | 214 to 216 | 

Continued, in another order:

Row | MIC [1, 7] [µg/mL] | MIC (MRSA clinical strain 433; [8]) [µg/mL] | MIC [2, 8] [µg/mL] | MIC [3, 8] [µg/mL] | MIC [4, 8] [µg/mL] | melting point [°C] | SMILES | also measured
23 |  |  |  |  |  | 176.2 to 177.8 | Cc1noc(-c2ccc(N3CC(Cn4ccnn4)OC3=O)cc2F)n1 (racemic) [Compound B1b] | MIC [1, 9]: 25 µg/mL (≈ 72.6 µM); MIC (MRSA clinical strain 433; [10]): 6.25 µg/mL (≈ 18.2 µM); MIC [2, 10]: 12.5 µg/mL (≈ 36.3 µM); MIC [3, 10]: 1.6 µg/mL (≈ 4.65 µM); MIC [4, 10]: 25 µg/mL (≈ 72.6 µM)
24 |  |  |  |  |  | 208 to 210 | Cc1noc(-c2ccc(N3CC(Cn4ccnn4)OC3=O)cc2)n1 (racemic) [Compound B1a] | MIC [1, 9]: 25 µg/mL (≈ 76.6 µM); MIC (MRSA clinical strain 433; [10]): 12.5 µg/mL (≈ 38.3 µM); MIC [2, 10]: 12.5 µg/mL (≈ 38.3 µM); MIC [3, 10]: 3.12 µg/mL (≈ 9.58 µM); MIC [4, 10]: 25 µg/mL (≈ 76.6 µM)
